Measured values published in ChEMBL document CHEMBL1147550, “Capped dipeptide phenethylamide inhibitors of the HCV NS3 protease” (Bioorg Med Chem Lett, 2004).

Molecular target: Genome polyprotein (Hepatitis C virus genotype 1a (isolate 1) (HCV), UniProt P26664)
Assay: Inhibition of Hepatitis C virus NS3 protease in vitro.

Sequence of Genome polyprotein (P26664 1027-1657 limits assumed): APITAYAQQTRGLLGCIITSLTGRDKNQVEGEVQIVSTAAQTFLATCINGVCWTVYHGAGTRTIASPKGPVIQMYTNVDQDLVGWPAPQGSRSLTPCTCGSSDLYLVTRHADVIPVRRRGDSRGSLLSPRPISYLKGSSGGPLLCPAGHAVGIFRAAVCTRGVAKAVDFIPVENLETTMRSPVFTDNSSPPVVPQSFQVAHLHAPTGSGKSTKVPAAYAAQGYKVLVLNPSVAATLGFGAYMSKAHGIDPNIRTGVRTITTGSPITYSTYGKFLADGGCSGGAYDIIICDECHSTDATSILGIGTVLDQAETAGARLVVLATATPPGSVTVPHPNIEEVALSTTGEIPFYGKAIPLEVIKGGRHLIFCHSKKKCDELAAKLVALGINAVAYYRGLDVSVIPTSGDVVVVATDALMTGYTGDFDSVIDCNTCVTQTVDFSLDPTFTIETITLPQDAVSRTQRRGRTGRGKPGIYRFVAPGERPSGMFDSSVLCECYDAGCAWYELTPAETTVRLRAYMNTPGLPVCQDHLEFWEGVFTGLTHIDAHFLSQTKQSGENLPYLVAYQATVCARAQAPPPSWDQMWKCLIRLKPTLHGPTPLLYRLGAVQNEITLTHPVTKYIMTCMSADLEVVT

Row | Compound | IC50 [µM]
1 | CC(C)[C@H](O)C(=O)N1C[C@H](OC2CCCCC2)C[C@H]1C(=O)N[C@@H](CC(F)F)C(=O)NCCc1c(F)cc(C(=O)O)cc1F | 32
2 | CC(C)[C@H](O)C(=O)N1C[C@H](OCc2ccc(Br)cc2)C[C@H]1C(=O)N[C@@H](CC(F)F)C(=O)NCCc1c(F)cc(C(=O)O)cc1F | 12
3 | CC(C)[C@H](O)C(=O)N1C[C@H](OCc2ccccc2Cl)C[C@H]1C(=O)N[C@@H](CC(F)F)C(=O)NCCc1c(F)cc(C(=O)O)cc1F | > 100
4 | O=C(O)c1cc(F)c(CCNC(=O)[C@H](CC(F)F)NC(=O)[C@@H]2C[C@@H](c3ccccc3)CN2C(=O)C(O)Cc2ccccc2)c(F)c1 (stereo partly specified) | > 100
5 | CC(C)COC(=O)N[C@H](C(=O)N1C[C@H](c2ccccc2)C[C@H]1C(=O)N[C@@H](CC(F)F)C(=O)NCCc1c(F)cc(C(=O)O)cc1F)C(C)C | 0.9
6 | CC(C)COC(=O)N[C@H](C(=O)N[C@@H](CC(C)C)C(=O)N[C@@H](CC(F)F)C(=O)NCCc1ccc(C(=O)O)cc1Cl)C(C)C | 2.4
7 | CC(C)C[C@H](NC(=O)[C@H](O)c1ccccc1)C(=O)N[C@@H](CC(F)F)C(=O)C(=O)O | 3
8 | CC(C)[C@H](O)C(=O)N1C[C@H](OCCCc2ccccc2)C[C@H]1C(=O)N[C@@H](CC(F)F)C(=O)NCCc1c(F)cc(C(=O)O)cc1F | 11
9 | CC(C)[C@H](O)C(=O)N1C[C@H](OCc2ccccc2)C[C@H]1C(=O)N[C@@H](CC(F)F)C(=O)NCCc1c(F)cc(C(=O)O)cc1F | 27

The next lines start with the values.

Row | IC50 [µM] | Compound
10 | 18 | CC(C)[C@H](O)C(=O)N1C[C@H](c2ccccc2)C[C@H]1C(=O)N[C@@H](CC(F)F)C(=O)NCCc1c(F)cc(C(=O)O)cc1F
11 | 34 | O=C(O)c1cc(F)c(CCNC(=O)[C@H](CC(F)F)NC(=O)[C@@H]2C[C@@H](c3ccccc3)CN2C(=O)CC2CCCC2)c(F)c1
12 | > 100 | O=C(O)c1cc(F)c(CCNC(=O)[C@H](CC(F)F)NC(=O)[C@@H]2C[C@@H](c3ccccc3)CN2C(=O)C(O)C2CC2)c(F)c1 (stereo partly specified)
13 | 50 | CCC(CC)C(O)C(=O)N1C[C@H](c2ccccc2)C[C@H]1C(=O)N[C@@H](CC(F)F)C(=O)NCCc1c(F)cc(C(=O)O)cc1F (stereo partly specified)
14 | > 100 | O=C(O)c1cc(F)c(CCNC(=O)[C@H](CC(F)F)NC(=O)[C@@H]2C[C@@H](c3ccccc3)CN2C(=O)[C@@H](O)c2ccccc2)c(F)c1
15 | 62 | O=C(O)c1cc(F)c(CCNC(=O)[C@H](CC(F)F)NC(=O)[C@@H]2C[C@@H](c3ccccc3)CN2C(=O)[C@H](O)C2CCCC2)c(F)c1
16 | 13 | O=C(O)c1cc(F)c(CCNC(=O)[C@H](CC(F)F)NC(=O)[C@@H]2C[C@@H](c3ccccc3)CN2C(=O)[C@@H](O)C2CCCC2)c(F)c1
17 | > 100 | O=C(O)c1cc(F)c(CCNC(=O)[C@H](CC(F)F)NC(=O)[C@@H]2C[C@@H](c3ccccc3)CN2C(=O)[C@H](O)c2ccccc2)c(F)c1
18 | 14 | O=C(O)c1cc(F)c(CCNC(=O)[C@H](CC(F)F)NC(=O)[C@@H]2C[C@@H](c3ccccc3)CN2C(=O)[C@@H](O)C2CCCCC2)c(F)c1
19 | 18 | CC(C)(C)[C@H](O)C(=O)N1C[C@H](c2ccccc2)C[C@H]1C(=O)N[C@@H](CC(F)F)C(=O)NCCc1c(F)cc(C(=O)O)cc1F
20 | > 100 | CC(C)[C@@H](O)C(=O)N1C[C@H](c2ccccc2)C[C@H]1C(=O)N[C@@H](CC(F)F)C(=O)NCCc1c(F)cc(C(=O)O)cc1F
21 | 58 | CC(C)CC(=O)N1C[C@H](c2ccccc2)C[C@H]1C(=O)N[C@@H](CC(F)F)C(=O)NCCc1c(F)cc(C(=O)O)cc1F
